The target in data set [1] is T1, human muscarinic receptor subtype M1 (Homo sapiens, UniProt P11229).
T1 sequence (P11229 1-460): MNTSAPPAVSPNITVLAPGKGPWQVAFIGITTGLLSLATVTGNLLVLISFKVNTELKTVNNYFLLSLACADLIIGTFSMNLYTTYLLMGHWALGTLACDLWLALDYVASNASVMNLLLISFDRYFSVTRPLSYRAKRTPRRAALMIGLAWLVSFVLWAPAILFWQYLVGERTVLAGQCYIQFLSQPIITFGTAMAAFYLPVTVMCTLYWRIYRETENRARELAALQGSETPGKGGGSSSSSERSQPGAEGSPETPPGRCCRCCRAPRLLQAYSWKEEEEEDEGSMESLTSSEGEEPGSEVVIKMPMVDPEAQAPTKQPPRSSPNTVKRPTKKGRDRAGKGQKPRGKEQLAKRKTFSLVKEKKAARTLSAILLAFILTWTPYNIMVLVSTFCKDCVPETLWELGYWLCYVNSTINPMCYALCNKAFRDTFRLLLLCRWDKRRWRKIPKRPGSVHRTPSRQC
The data set can be described thus: Muscarinic receptor binding, displacement of [3H]-NMS, membranes from transfected CHO cells. The method, then: (§1) The compounds were evaluated in standard assays used to measure muscarinic receptor binding, and they were compared with other benzoxazines described in Bioorganic & Medicinal Chemistry Letters 8, 1998:1991-1996, which is incorporated herein by reference. Specifically, the compounds were evaluated for their binding affinity toward five human muscarinic receptor subtypes (M1-M5) by the method of Dorje et al., J. Pharm. Exp. Ther. 1991;256:727-733, which is incorporated herein by reference. The binding was determined by measuring the displacement of [^3H]-NMS (N-methylscopolamine) binding using membranes from transfected Chinese hamster ovary (CHO) cells.
Background: Displacement assays read how much labelled ligand stays bound in the presence of the test substance.

In data set [2] the target is human muscarinic receptor subtype M3 (Homo sapiens, UniProt P20309). Described as above. The procedure:
as §1

For data set [3], the target named is T2, human muscarinic receptor subtype M4 (Homo sapiens, UniProt P08173).
T2 sequence (P08173 1-479): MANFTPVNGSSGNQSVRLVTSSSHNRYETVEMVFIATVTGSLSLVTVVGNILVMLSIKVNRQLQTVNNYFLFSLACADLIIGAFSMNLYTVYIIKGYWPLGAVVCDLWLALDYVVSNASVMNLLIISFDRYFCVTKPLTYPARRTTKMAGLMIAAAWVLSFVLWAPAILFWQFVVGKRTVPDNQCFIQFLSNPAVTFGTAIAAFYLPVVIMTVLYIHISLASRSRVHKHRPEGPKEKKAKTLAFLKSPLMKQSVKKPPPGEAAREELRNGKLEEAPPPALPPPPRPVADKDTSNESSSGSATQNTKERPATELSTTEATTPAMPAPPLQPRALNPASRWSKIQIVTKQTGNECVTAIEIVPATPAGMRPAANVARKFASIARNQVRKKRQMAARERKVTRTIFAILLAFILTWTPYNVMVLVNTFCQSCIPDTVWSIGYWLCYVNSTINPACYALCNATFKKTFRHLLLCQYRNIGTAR
The data set is described as above. The following applies: for binds to the M4 receptor more than to M3 (selectivity): M4 versus M3; for bind to M4 more than some of the other subtypes (selectivity): M4 versus some of the other subtypes, upper figure (as much as). The procedure: as §1

For data set [4], the target named is T3, human muscarinic receptor subtype M5 (Homo sapiens, UniProt P08912).
T3 sequence (P08912 1-532): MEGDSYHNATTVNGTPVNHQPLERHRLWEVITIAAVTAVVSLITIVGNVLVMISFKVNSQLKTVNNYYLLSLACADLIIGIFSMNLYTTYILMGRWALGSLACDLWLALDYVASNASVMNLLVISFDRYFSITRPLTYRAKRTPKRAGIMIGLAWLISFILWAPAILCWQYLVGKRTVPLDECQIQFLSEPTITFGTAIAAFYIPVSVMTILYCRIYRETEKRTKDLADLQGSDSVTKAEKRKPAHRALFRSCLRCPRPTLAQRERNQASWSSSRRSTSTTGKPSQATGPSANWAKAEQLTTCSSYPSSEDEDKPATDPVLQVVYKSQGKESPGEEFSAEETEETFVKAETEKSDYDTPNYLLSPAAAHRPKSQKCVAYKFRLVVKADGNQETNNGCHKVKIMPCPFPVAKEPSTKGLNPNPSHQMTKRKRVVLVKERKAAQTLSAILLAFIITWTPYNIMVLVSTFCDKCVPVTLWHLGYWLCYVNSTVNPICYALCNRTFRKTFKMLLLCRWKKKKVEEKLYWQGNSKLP
The data set is described as above. The method, then:
as §1

In data set [5] the target is T4, human muscarinic receptor subtype M2 (Homo sapiens, UniProt P08172).
T4 sequence (P08172 1-466): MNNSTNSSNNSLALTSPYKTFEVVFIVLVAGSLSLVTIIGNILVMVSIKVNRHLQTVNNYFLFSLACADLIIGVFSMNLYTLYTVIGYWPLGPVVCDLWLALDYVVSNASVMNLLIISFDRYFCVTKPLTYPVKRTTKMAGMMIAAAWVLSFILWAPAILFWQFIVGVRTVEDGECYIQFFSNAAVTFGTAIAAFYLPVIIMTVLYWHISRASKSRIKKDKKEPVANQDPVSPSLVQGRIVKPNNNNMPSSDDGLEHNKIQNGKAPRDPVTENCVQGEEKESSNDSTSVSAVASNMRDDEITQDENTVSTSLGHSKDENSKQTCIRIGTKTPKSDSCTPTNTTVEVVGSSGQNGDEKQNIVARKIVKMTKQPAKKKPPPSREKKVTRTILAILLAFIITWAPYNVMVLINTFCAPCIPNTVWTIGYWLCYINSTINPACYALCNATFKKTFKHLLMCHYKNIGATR
The description is as above. The procedure: as §1

Where [6] appears, read: [3H]-NMS displacement, CHO cell membranes, tested two to four times, SEM <=10%, read-out: Muscarinic Binding Activity M1 (IC50).
Where [7] appears, read: [3H]-NMS displacement, CHO cell membranes, tested two to four times, SEM <=10%, read-out: Muscarinic Binding Activity M3 (IC50).
The mark [8] stands for this setting: [3H]-NMS displacement, CHO cell membranes, tested two to four times, SEM <=10%, read-out: Muscarinic Binding Activity M4 (IC50).
The mark [9] stands for this setting: [3H]-NMS displacement, CHO cell membranes, tested two to four times, SEM <=10%, read-out: Muscarinic Binding Activity M5 (IC50).
Where [10] appears, read: [3H]-NMS displacement, CHO cell membranes, tested two to four times, SEM <=10%, read-out: Muscarinic Binding Activity M2 (IC50).

Where two headings read alike, the source gives them in different places.

One may read the IC50 as the point on the concentration scale where inhibition reaches its midpoint. What is called melting point is the temperature, or range, at which the solid turns liquid.

human muscarinic receptor subtype M3, sequence (P20309 whole entry): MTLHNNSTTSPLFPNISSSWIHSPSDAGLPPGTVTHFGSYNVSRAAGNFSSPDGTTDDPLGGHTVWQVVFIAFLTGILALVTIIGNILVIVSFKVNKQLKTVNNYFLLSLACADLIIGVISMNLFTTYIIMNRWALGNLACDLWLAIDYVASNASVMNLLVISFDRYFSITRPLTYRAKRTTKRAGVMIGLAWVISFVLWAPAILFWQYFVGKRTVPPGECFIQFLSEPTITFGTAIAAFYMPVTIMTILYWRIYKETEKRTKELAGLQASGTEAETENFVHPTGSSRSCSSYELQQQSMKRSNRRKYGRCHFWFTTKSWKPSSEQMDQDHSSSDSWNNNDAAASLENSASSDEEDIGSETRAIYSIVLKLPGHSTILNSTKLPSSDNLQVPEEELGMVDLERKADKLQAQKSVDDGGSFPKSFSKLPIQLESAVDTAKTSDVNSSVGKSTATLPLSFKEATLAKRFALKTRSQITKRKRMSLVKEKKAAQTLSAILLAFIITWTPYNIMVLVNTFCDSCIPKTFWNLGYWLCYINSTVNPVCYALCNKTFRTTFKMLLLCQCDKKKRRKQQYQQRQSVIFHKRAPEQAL

With `CCOC(=O)c1c(CC)n(CC)c2ccc3c(c12)CN1CCc2cc(OC)ccc2C1O3` (stereo not drawn) [Prior Art Compound Et/Et/9-OMe/Et, reference compound], the IC50 was determined as 5000 nM in data set [1]; 50 nM in data set [2]; 20 nM in data set [3]; 5000 nM in data set [4]; 1000 nM in data set [5].

Take `CCOC(=O)c1c(C)n(CC)c2ccc3c(c12)CN1CCc2cc(OC)ccc2C1O3` (stereo not drawn) [Prior Art Compound Et/Me/9-OMe/Et, reference compound]: the IC50 in data set [1] amounted to 2000 nM; in data set [2], 500 nM; in data set [3], 50 nM; in data set [4] it was 3000 nM; in data set [5] it was 400 nM.

With `CCOC(=O)c1c(CC)[nH]c2ccc3c(c12)CN1CCc2cc(OC)ccc2C1O3` (stereo not drawn) [Prior Art Compound Et/Et/9-OMe/H, reference compound], the IC50 in data set [1] (setting [6]) was 2000 nM; in data set [2] (setting [7]), 200 nM; in data set [3] (setting [8]), 20 nM; in data set [4] (setting [9]) it was 6000 nM; in data set [5] (setting [10]) it was 2000 nM.

Molecule `CCCc1[nH]c2ccc3c(c2c1C(=O)OCC)CN1CCc2cc(SC)ccc2C1O3` (stereo not drawn) [Example 4, 9-Methylsulfanyl-2-propyl-11,12-dihydro-3H,6aH,13H-6-oxa-3,12a-diaza-benzo[a]cyclopent[h]anthracene-1-carboxylic acid ethyl ester] came in with a melting point of 185 to 186 °C. Moreover, the IC50 in data set [1] (setting [6]) came to 1400 nM. Besides, in data set [2] (setting [7]), the IC50 amounted to 200 nM. In data set [3], the “binds to the M4 receptor more than to M3 (selectivity)” value (from here on “binds … to M3 (selectivity)”) was “about 30 fold” and the “bind to M4 more than some of the other subtypes (selectivity)” value is on record as “about 800 fold”. In addition, the IC50 in data set [3] (setting [8]) came to 6 nM. In data set [4] (setting [9]), the IC50 stood at 3500 nM. Besides, the IC50 in data set [5] (setting [10]) stood at 2000 nM.

On to `CCCCc1[nH]c2ccc3c(c2c1C(=O)OCC)CN1CCc2cc(OC)ccc2C1O3` (stereo not drawn) [Example 5, 2-Butyl-9-methoxy-11,12-dihydro-3H,6aH,13H-6-oxa-3,12a-diaza-benzo[a]cyclopent[h]anthracene-1-carboxylic acid ethyl ester], for which the IC50 in data set [1] (setting [6]) is 800 nM; in data set [2] (setting [7]), 190 nM; in data set [3] (setting [8]) it was 6 nM; in data set [4] (setting [9]) it was 13000 nM; in data set [5] (setting [10]), 550 nM. Further, in data set [3], the “binds … to M3 (selectivity)” value is listed as “about 30 fold”. Also, the “bind to M4 more than some of the other subtypes (selectivity)” value in data set [3] is reported as “about 800 fold”.

Take `CCOC(=O)c1c(C)n(C)c2ccc3c(c12)CN1CCc2cc(OC)ccc2C1O3` (stereo not drawn) [Prior Art Compound Et/Me/9-OMe/Me, reference compound]: the IC50 is 500 nM in data set [1] (setting [6]); 400 nM in data set [2] (setting [7]); 50 nM in data set [3] (setting [8]); 1000 nM in data set [4] (setting [9]); 400 nM in data set [5] (setting [10]).

`CCOC(=O)c1c(C)[nH]c2ccc3c(c12)CN1CCc2cc(OC)ccc2C1O3` (stereo not drawn) [Prior Art Compound Et/Me/9-OMe/H, reference compound]: the IC50 in data set [1] (setting [6]) came out at 3000 nM; in data set [2] (setting [7]), 500 nM; in data set [3] (setting [8]) it was 30 nM; in data set [4] (setting [9]) it was 6000 nM; in data set [5] (setting [10]), 1000 nM.

For the molecule `CCCCCCc1[nH]c2ccc3c(c2c1C(=O)OCC)CN1CCc2cc(OC)ccc2C1O3` (stereo not drawn) [Example 8, 2-Hexyl-9-methoxy-11,12-dihydro-3H,6aH,13H-6-oxa-3,12a-diaza-benzo[a]cyclopent[h]anthracene-1-carboxylic acid ethyl ester], the melting point was 157 to 160 °C. In addition, the IC50 in data set [1] (setting [6]) is 2000 nM. Also, the 50% inhibitory concentration (IC50) in data set [2] (setting [7]) worked out at 400 nM. For the same molecule, the IC50 in data set [3] (setting [8]) worked out at 30 nM. In addition, the IC50 in data set [4] (setting [9]) amounted to 3000 nM. Further, the IC50 in data set [5] (setting [10]) stood at 800 nM.

In the case of `CCCCCc1[nH]c2ccc3c(c2c1C(=O)OCC)CN1CCc2cc(OC)ccc2C1O3` (stereo not drawn) [Example 7, 9-Methoxy-2-pentyl-11,12-dihydro-3H,6aH,13H-6-oxa-3,12a-diaza-benzo[a]cyclopent[h]anthracene-1-carboxylic acid ethyl ester], the melting point was 170 to 172 °C. Moreover, the IC50 in data set [1] (setting [6]) turned out to be 50000 nM. Besides, the IC50 in data set [2] (setting [7]) was determined as 200 nM. Also, in data set [3] (setting [8]), the IC50 was determined as 10 nM. In addition, in data set [4] (setting [9]), the IC50 was found to be 10000 nM. In addition, in data set [5] (setting [10]), the IC50 is 600 nM.

Turning to `CCCc1c(C(=O)OCC)c2c3c(ccc2n1C)OC1c2ccc(SC)cc2CCN1C3` (stereo not drawn) [Example 2, 3-Methyl-9-methylsulfanyl-2-propyl-11,12-dihydro-3H,6aH,13H-6-oxa-3,12a-diaza-benzo[a]cyclopent[h]anthracene-1-carboxylic acid ethyl ester], the melting point is 139 to 143 °C. Also, in data set [1] (setting [6]), the IC50 was 7500 nM. In addition, in data set [2] (setting [7]), the IC50 turned out to be 370 nM. In addition, in data set [3] (M4 versus M1, M2 and M5), the “binds to the M4 receptor more than to M1, M2, and M5 (selectivity)” value is listed as “about 1000 fold”. For the same molecule, the “binds … to M3 (selectivity)” value in data set [3] was “about 52 fold”. In data set [3] (setting [8]), the IC50 amounted to 7 nM. The IC50 in data set [4] (setting [9]) came to 3000 nM. Besides, the IC50 in data set [5] (setting [10]) turned out to be 7000 nM.

In the case of `CCCc1c(C(=O)OCC)c2c3c(ccc2n1C)OC1c2ccc(OC)cc2CCN1C3` (stereo not drawn) [Example 3, 9-Methoxy-3-methyl-2-propyl-11,12-dihydro-3H,6aH,13H-6-oxa-3,12a-diaza-benzo[a]cyclopent[h]anthracene-1-carboxylic acid ethyl ester], the melting point is 150 to 151 °C. Further, in data set [1] (setting [6]), the IC50 came to 3000 nM. For the same molecule, in data set [2] (setting [7]), the IC50 worked out at 130 nM. Moreover, the IC50 in data set [3] (setting [8]) came to 7 nM. Moreover, the IC50 in data set [4] (setting [9]) is 6000 nM. Moreover, the IC50 in data set [5] (setting [10]) turned out to be 950 nM.

The molecule `CCCCc1[nH]c2ccc3c(c2c1C(=O)OCC)CN1CCc2cc(SC)ccc2C1O3` (stereo not drawn) [Example 6, 2-Butyl-9-methylsulfanyl-11,12-dihydro-3H,6aH,13H-6-oxa-3,12a-diaza-benzo[a]cyclopent[h]anthracene-1-carboxylic acid ethyl ester] gave a melting point of 159 to 161 °C. The IC50 in data set [1] (setting [6]) came to 2000 nM. Also, the IC50 in data set [2] (setting [7]) was 5000 nM. Further, in data set [3] (setting [8]), the IC50 stood at 10 nM. Also, in data set [4] (setting [9]), the half-inhibitory concentration (IC50) was determined as 2000 nM. For the same molecule, in data set [5] (setting [10]), the half-inhibitory concentration (IC50) was 4000 nM.

The values are drawn from US6812228B2, “Benzoxazines for use in the treatment of parkinson's disease” (Warner-Lambert Company, priority 2000, dated 2004).
